Laboratory results from patent US20050009776A1, “Method of treating atrial fibrillation or atrial flutter” (Aderis Pharmaceuticals, Inc., priority 2003, published 2005).
Marks after values point to notes of the source that are not given here.

What was measured:
[1] = test system: adult patients with rapid atrial fibrillation (AF); test: Example 1: ventricular rate control in atrial fibrillation, 15-minute i.v. loading dose plus maintenance dose; type: in vivo, human
Description: A randomized, parallel-group, open label, dose-ranging study of DTI-0009 as a 15-minute intravenous loading dose (LD) followed by a maintenance dose (MD) infusion for up to 20 hours in adult patients with rapid atrial fibrillation (AF) (>120 bpm) was conducted. 78 patients were randomized to receive one of three LD regimens. If the ventricular rate (VR) was between 70 and 90 bpm 5 minutes after the end of the LD, then patients were randomized to one of the following three MDs of DTI-0009: 1.75 μg/kg/hr, 2.25 μg/kg/hr, or 2.75 μg/kg/hr. The MD was adjusted to keep the VR within the 70-90 bpm range.
63 of 69 patients completed the LD, 20 patients received a MD, and 18 patients completed at least 3 hours of MD. The VR remained below 100 bpm across all the dosing regimens during the 3-hour MD.

[2] = test system: atrioventricular (AV) node; test: Example 3: Phase I dose escalation, effects on AV node function; type: in vivo, human
Description: This study for determining the effects of DTI-0009 on atrioventricular (AV) node function enrolled 63 patients (19 women and 44 men; mean age 54) who were scheduled for a procedure other than AV node or slow pathway ablation. All patients had no greater than a first degree AV block and AV node Wenckebach Cycle Length of less than 500 msec. […] The study was a Phase I, multi-center, open-label, sequential dose escalation using DTI-0009 (0.25 μg/kg, 1.0 μg/kg, 2.5 μg/kg, 4.0 μg/kg, 10.0 μg/kg, and 25.0 μg/kg) or normal saline. Electrophysiologic studies (EPS) were performed at baseline, during infusion (20-30 min) and 10 minutes after discontinuation of DTI-0009 administration.

## CCNC(=O)[C@H]1O[C@@H](n2cnc3c(NC4CCCC4)ncnc32)[C@H](O)[C@@H]1O [DTI-0009, N^6-cyclopentyl-5′-(N-ethyl)carboxamidoadenosine]
[1]; LD 2.5 μg/kg, 5 min, Baseline 143
  ventricular rate (VR): 129^a bpm
[1]; LD 2.5 μg/kg, 10 min, Baseline 143
  ventricular rate (VR): 117^a bpm
[1]; LD 2.5 μg/kg, 15 min, Baseline 143
  ventricular rate (VR): 113^b bpm
[1]; LD 2.5 μg/kg, 20 min, Baseline 143
  ventricular rate (VR): 115^b bpm
[1]; LD 5.0 μg/kg, 5 min, Baseline 138
  ventricular rate (VR): 115^b bpm
[1]; LD 5.0 μg/kg, 10 min, Baseline 138
  ventricular rate (VR): 104^b bpm
[1]; LD 5.0 μg/kg, 15 min, Baseline 138
  ventricular rate (VR): 108^b bpm
[1]; LD 5.0 μg/kg, 20 min, Baseline 138
  ventricular rate (VR): 111^b bpm
[1]; LD 7.5 μg/kg, 5 min, Baseline 143
  ventricular rate (VR): 110^b,c bpm
[1]; LD 7.5 μg/kg, 10 min, Baseline 143
  ventricular rate (VR): 99^b,c bpm
[1]; LD 7.5 μg/kg, 15 min, Baseline 143
  ventricular rate (VR): 105^b bpm
[1]; LD 7.5 μg/kg, 20 min, Baseline 143
  ventricular rate (VR): 106^b bpm
[1]; all dosing regimens, 3-hour MD
  VR during maintenance dose: below 100 bpm
[1]; during the LD
  systolic and diastolic blood pressures: did not change significantly
[2]; 4.0 μg/kg (n = 9), ns
  AERP Change from Baseline: +10 msec (ns)
  AH Interval Change from Baseline: +9 msec (ns)
  AVNERP Change from Baseline: +73 msec (ns)
  Wenkebach Cycle Length Change from Baseline: +60 msec (ns)
[2]; 4.0 μg/kg (n = 9), p = 0.008
  HR at 250 msec pacing Change from Baseline: −49 bpm
[2]; 10.0 μg/kg (n = 8), p = 0.001
  AVNERP Change from Baseline: +248 msec
  HR at 250 msec pacing Change from Baseline: −51 bpm
  Wenkebach Cycle Length Change from Baseline: +198 msec
[2]; 10.0 μg/kg (n = 8), p = 0.004
  AH Interval Change from Baseline: +24 msec
[2]; 10.0 μg/kg (n = 8), p = 0.035
  AERP Change from Baseline: -14 ms
[2]; 10.0 μg/kg dose
  complete heart block: occurred in one patient
[2]; 25.0 μg/kg (n = 2), ns
  AERP Change from Baseline: +10 msec (ns)
  AH Interval Change from Baseline: +14 msec (ns)
[2]; 25.0 μg/kg (n = 2), p = 0.004
  HR at 250 msec pacing Change from Baseline: −45 bpm
[2]; 25.0 μg/kg (n = 2), p = 0.013
  AVNERP Change from Baseline: +185 msec
[2]; 25.0 μg/kg (n = 2), p = 0.035
  Wenkebach Cycle Length Change from Baseline: +140 msec
[2]; 25.0 μg/kg, three patients dosed
  transient, severe, non-ischemic chest pain reported as serious adverse events: two of these patients
[2]; doses up to 2.5 μg/kg
  effects on AV node variables at low doses: negligible effects
[2]; up to a dose of 10.0 μg/kg
  tolerability: well tolerated
